Measurements as given in article PMC9727064, “Performance assessment and economic analysis of a human Liver-Chip for predictive toxicology” (Communications Medicine, 2022).
“Also recorded” adds a separate entry of the source. Where two headings read alike, the source gives them in different places.

How the values were obtained:
[1] = system: 3D spheroid cultures of primary human hepatocytes; details: cited from earlier work; for Spheroid false negative: Yes/No, also No for drugs not tested in spheroid; for Spheroid MOS: 3D hepatic spheroids, previously published data; for Toxicity detection in 3D hepatic spheroids: threshold 50
[2] = system: human Liver-Chip; experiment: Liver-Chip DILI prediction: minimum toxic concentration and margin of safety (MOS)-like figure; details: for Chip MOS both donors / Chip MOS donor 1 / Chip MOS donor 2: free IC50 concentration in the assay divided by total concentration of drug in human plasma at Cmax; for Liver-Chip toxicity determination, MOS-like figure against threshold value of 50: not corrected for protein binding, donors one and two;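 as to Chip MOS both donors: Toxic concentration is the lowest across albumin IC50 and ALT and morphology endpoints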;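 as to Chip MOS donor 1: Toxic concentration is the lowest across albumin IC50 and ALT and morphology endpoints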;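 as to Chip MOS donor 2: Toxic concentration is the lowest across albumin IC50 and ALT and morphology endpoints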
Excerpt: Because the fundamental principles of drug action dictate that free (unbound) drug concentrations drive drug effects, we explored an alternative methodology for calculating the MOS-like values by accounting for protein binding using a previously reported approach. Accordingly, we reanalyzed the findings for the 27 drugs in our study by accounting for protein binding.

[3] = cited from earlier work
[4] = cited from earlier work; remark: listed apart in the source
[5] = system: clinical drug-induced liver injury; details: clinical DILI severity category 1 to 5; cited from earlier work
[6] = system: human Liver-Chip (primary human hepatocytes); experiment: Liver-Chip alanine transaminase (ALT) release in top channel effluent (ELISA); assay type: cell-based; details: for ALT change in words: Liver-Chip effluent
Excerpt: (§1) Cycles 1 to 4 tested 6–8 concentrations in duplicate for each of 10–13 drugs. To determine which sampling strategy was optimal for cycles 1 to 4 (16 doses × 1 replicate, 8 × 2, 5 × 3, or 4 × 4), we generated three different “dose-response” synthetic datasets, each distorted by different noise levels (low, medium, or high). For each of these datasets, we performed curve-fitting analyses and calculated the Root Mean Square Error between the “true” and estimated IC50 parameter. […] Some drugs were also repeated across cycles (on different donors or at different concentrations) to ensure experimental robustness. However, to replicate a more typical study design likely to be carried out by scientists in the pharmaceutical industry, we created cycle 5 with 6 drugs, where each was tested in 4 concentrations in triplicate. For each cycle, chips were dosed with drug over 8 days (referred to as Day 0 through Day 7).
(§2) The drug dosing concentrations were determined from the unbound human Cmax of each drug. First, the expected fraction of drug unbound in media with 2% FBS was extrapolated from plasma binding data for each drug. Dosing concentrations were then back calculated such that the unbound fraction in media would reflect relevant multiples of unbound human Cmax (Supplementary Data 1).
(§3) On the first dosing day (Day 0), all chips were imaged using the ECHO microscope. Five hundred microliters of effluent was collected from all four reservoirs of the pod and placed in a labeled 96-well plate. After collection, all the remaining media was carefully aspirated before dosing with 3.8 mL of corresponding dosing solution. Dosing occurred on study days 0, 2, and 4 for chips flowing at 30 µL/h, and on days 0, 1, 2, 3, 4, 5, and 6 for chips flowing at 150 µL/h. Effluent collection occurred on days 1, 3, and 7.
(§4) Top channel outlet effluents were analyzed to quantify albumin and alanine transaminase (ALT) levels on days 1, 3, and 7 using sandwich ELISA kits (Abcam, Albumin ab179887, ALT ab234578) according to vendor-provided protocols. Frozen (−80 °C) effluent samples were thawed overnight at 4 °C prior to assay. The Hamilton Vantage liquid handling platform was used to manage effluent dilutions (1:500 for albumin, neat for ALT), preparation of standard curves, and addition of antibody cocktail. Absorbance at 450 nm was measured using the SynergyNeo Microplate Reader (BioTek).

[7] = system: human Liver-Chip (primary human hepatocytes); experiment: Liver-Chip albumin production in top channel effluent (ELISA); assay type: cell-based; details: for Albumin change in words: Liver-Chip effluent
Excerpt: as §1, §2, §3, §4
All statistical analyses were conducted in R[21] (version 4.1.2) and figures were produced using the R package ggplot2[22] (version 3.3.5). The dose-response analysis (Fig. 4) was carried out using the popular drc R package developed by Ritz et al.[23] using the generalized log-logistic dose-response model. The error bars in Figs. 3 and 4, correspond to the standard errors of the mean. The circles in Fig. 3 correspond to the samples used to calculate the corresponding statistics. The analysis of significance in Fig. 3 was performed using paired t-test across different days (same donor) and unpaired t-test across different donors (same day). In Fig. 3 the number of samples used were n = 3 for donor two, and n = 4 for donor three. For both donors, the number of the freshly thawed hepatocyte samples used to estimate the corresponding log2(Fold Change) were n = 4. Finally, the analysis of significance in Fig. 3 was performed using paired t-test.

[8] = system: human Liver-Chip (Kupffer cell activation); experiment: IL-6 and TNF-alpha in Liver-Chip effluent (MSD U-PLEX); details: effluent of Liver-Chips from three donors, no inflammatory stimulant
Procedure: Samples were added to plates manually at a 1:2 dilution. Plates were read for cytokine release on the MESO QuickPlex SQ 120 (Meso Scale Discoveries).

[9] = expanded drug list, lowest concentration causing an increase in ALT release
[10] = expanded drug list, lowest multiplier causing a 50% reduction in albumin production
[11] = human, total plasma Cmax, ref Xu, J. J. et al. (36)
[12] = human, total plasma Cmax, reference data from the literature, no reference
[13] = lowest concentration causing an increase in ALT protein
[14] = concentration causing a 50% reduction in albumin production

CC(CCc1ccccc1)NCC(O)c1ccc(O)c(C(N)=O)c1 (stereo not drawn) [Labetalol]
Spheroid false negative [1]: Yes | Chip MOS both donors [2]: 22 | Chip MOS donor 1 [2]: 26 | Chip MOS donor 2 [2]: 22 | Liver-Chip toxicity determination, MOS-like figure against threshold value of 50 [2]: hepatotoxic | Expected Fraction Unbound in Plasma ([3]; plasma, ref Lau, S.W.J. (65)): 0.5 | Human Cmax Total ([4]; human, total plasma Cmax, ref Vorrink, S. U., Zhou, Y., Ingelman- Sundberg, M. & Lauschke, V.M. (30)): 2.68 µM | Garside DILI rank [5]: 1 | ALT Donor 1 [6, 9]: > 100 unbound human Cmax multiplier | ALT Donor 2 [6, 9]: 100 unbound human Cmax multiplier | Albumin IC50 Donor 1 [7, 10]: 26 unbound human Cmax multiplier | Albumin IC50 Donor 2 [7, 10]: 40 unbound human Cmax multiplier

O=C(NC1CCN(CCCCC2(C(=O)NCC(F)(F)F)c3ccccc3-c3ccccc32)CC1)c1ccccc1-c1ccc(C(F)(F)F)cc1 [Lomitapide]
Spheroid false negative [1]: No | Hepatotoxicity in the Liver-Chip, in words ([2]; albumin, ALT and morphology endpoints together): highly toxic | Chip MOS donor 1 [2]: 0 | Expected Fraction Unbound in Plasma ([3]; plasma, ref Lau, S.W.J. (65)): 0.002 | Human Cmax Total ([4]; human, total plasma Cmax, ref Dawson, S., Stahl, Paul, N., Barber, J. & Kenna, J. G. (71)): 0.0017 µM | Garside DILI rank [5]: 3 | ALT Donor 1 [6, 9]: > 1000 unbound human Cmax multiplier | Albumin IC50 Donor 1 [7, 10]: 4 unbound human Cmax multiplier

Cc1cn([C@H]2C=C[C@@H](CO)O2)c(=O)[nH]c1=O [Stavudine]
Spheroid MOS [1]: >144 | Spheroid false negative [1]: Yes | Toxicity detection in 3D hepatic spheroids [1]: not detected as toxic drugs in spheroids | Liver-Chip toxicity determination, protein-binding-corrected MOS-like figure, threshold 375 ([2]; 18 drugs tested in both donors): detection | Chip MOS both donors [2]: 107 | Chip MOS donor 1 [2]: 247 | Chip MOS donor 2 [2]: 107 | Liver-Chip toxicity determination, MOS-like figure against threshold value of 50 [2]: not detected; also recorded: false negative | Expected Fraction Unbound in Plasma ([3]; plasma, ref Lau, S.W.J. (65)): 1 | Human Cmax Total [4, 11]: 3.46 µM | Garside DILI rank [5]: 1 | ALT Donor 1 [6, 9]: 300 unbound human Cmax multiplier | ALT Donor 2 [6, 9]: > 300 unbound human Cmax multiplier | Albumin IC50 Donor 1 [7, 10]: > 60 unbound human Cmax multiplier | Albumin IC50 Donor 2 [7, 10]: 132 unbound human Cmax multiplier

Nc1c2c(nc3ccccc13)CCCC2 [Tacrine]
Spheroid MOS [1]: 696 | Spheroid false negative [1]: Yes | Toxicity detection in 3D hepatic spheroids [1]: not detected as toxic drugs in spheroids | Chip MOS both donors [2]: >12 | Chip MOS donor 1 [2]: >12 | Chip MOS donor 2 [2]: >12 | Liver-Chip toxicity determination, MOS-like figure against threshold value of 50 [2]: not detected | Expected Fraction Unbound in Plasma ([3]; plasma, ref Lau, S.W.J. (65)): 0.25 | Human Cmax Total [4, 11]: 0.1 µM | Garside DILI rank [5]: 2 | ALT change in words [6]: not associated with any release of ALT | ALT Donor 1 [6, 9]: > 300 unbound human Cmax multiplier | ALT Donor 2 [6, 9]: > 1000 unbound human Cmax multiplier | Albumin change in words [7]: not associated with any release of ALT or decline in albumin

CC[C@H]1OC(=O)[C@H](C)C(=O)[C@H](C)[C@@H](O[C@@H]2O[C@H](C)C[C@H](N(C)C)[C@H]2O)[C@](C)(OC)C[C@@H](C)C(=O)[C@H](C)[C@H]2N(CCCCn3cnc(-c4cccnc4)c3)C(=O)O[C@]12C [Telithromycin]
Spheroid false negative [1]: No | Chip MOS donor 1 [2]: 6 | Expected Fraction Unbound in Plasma ([3]; plasma, ref Lau, S.W.J. (65)): 0.4 | Human Cmax Total [4, 12]: 2.79 µM | Garside DILI rank [5]: 1 | ALT change in words [6]: concomitant increase | ALT Donor 1 [6, 9]: 30 unbound human Cmax multiplier | Albumin change in words [7]: decrease in albumin | Albumin IC50 Donor 1 [7, 10]: 13 unbound human Cmax multiplier

Cc1ccc(C(=O)c2cc(O)c(O)c([N+](=O)[O-])c2)cc1 [Tolcapone]
Spheroid MOS [1]: 0.3 | Spheroid false negative [1]: No | Chip MOS both donors [2]: 0.004 | Chip MOS donor 1 [2]: 0.004 | Chip MOS donor 2 [2]: 0.05 | Expected Fraction Unbound in Plasma ([3]; plasma, ref Lau, S.W.J. (65)): 0.0012 | Human Cmax Total [4, 12]: 47.6 µM | Garside DILI rank [5]: 1 | ALT Donor 1 [6, 13]: 100 multiples of the unbound human Cmax | ALT Donor 2 [6, 13]: 30 multiples of the unbound human Cmax | Albumin IC50 Donor 1 [7, 14]: 3 multiples of the unbound human Cmax | Albumin IC50 Donor 2 [7, 14]: 39 multiples of the unbound human Cmax

Cc1c(C)c2c(c(C)c1O)CCC(C)(COc1ccc(CC3SC(=O)NC3=O)cc1)O2 (stereo not drawn) [Troglitazone]
Spheroid MOS [1]: 2.3 | Spheroid false negative [1]: No | Chip MOS both donors [2]: 0.03 | Chip MOS donor 1 [2]: 0.03 | Chip MOS donor 2 [2]: 0.1 | Expected Fraction Unbound in Plasma ([3]; plasma, reference data from the literature, no reference): 0.0011 | Human Cmax Total [4, 11]: 6.08 µM | Garside DILI rank [5]: 1 | ALT Donor 1 [6, 13]: 300 multiples of the unbound human Cmax | ALT Donor 2 [6, 13]: 300 multiples of the unbound human Cmax | Albumin IC50 Donor 1 [7, 14]: 24 multiples of the unbound human Cmax | Albumin IC50 Donor 2 [7, 14]: 122 multiples of the unbound human Cmax

N[C@@H]1[C@H]2CN(c3nc4c(cc3F)c(=O)c(C(=O)O)cn4-c3ccc(F)cc3F)C[C@@H]12 [Trovafloxacin]
IL-6 and TNFα cytokine production after treatment [8]: no concentration-dependent change in cytokine levels; also recorded: did not detect any concentration-related change; also recorded: unable to see any concentration-dependent increase in cytokine production | ALT Donor 1 [6, 13]: 100 multiples of the unbound human Cmax | ALT Donor 2 [6, 13]: 100 multiples of the unbound human Cmax | ALT Donor 3 ([6]; lowest concentration causing an increase in ALT protein, donor 3): 30 multiples of the unbound human Cmax | Albumin IC50 Donor 1 [7, 14]: 82 multiples of the unbound human Cmax | Albumin IC50 Donor 2 [7, 14]: 78 multiples of the unbound human Cmax | Albumin IC50 Donor 3 ([7]; concentration causing a 50% reduction in albumin production, donor 3): 31 multiples of the unbound human Cmax

CC(c1cc2ccccc2s1)N(O)C(N)=O (stereo not drawn) [Zileuton]
Spheroid MOS [1]: >7.7 | Spheroid false negative [1]: Yes | Chip MOS both donors [2]: 15 | Chip MOS donor 1 [2]: >7 | Chip MOS donor 2 [2]: 15 | plasma protein bound [3]: > 93% | Expected Fraction Unbound in Plasma ([3]; human plasma, ref Scott, L. J. (69)): 0.07 | Human Cmax Total ([4]; human therapeutic total plasma Cmax from literature, ref Xu, J. J. et al. (36)): 13.1 µM | Garside DILI rank [5]: 2 | ALT Donor 1 [6, 9]: > 100 unbound human Cmax multiplier | ALT Donor 2 [6, 9]: > 300 unbound human Cmax multiplier | Albumin IC50 Donor 1 [7, 10]: > 100 unbound human Cmax multiplier | Albumin IC50 Donor 2 [7, 10]: 210 unbound human Cmax multiplier
